What was measured:
hKv1.3 = hKv1.3 (Homo sapiens, UniProt P22001); experiment: hKv1.3 % inhibition; format: cell-based; conditions: for inhibition at 1 µM: read-out: hKv1.3 % inh. 1 uM
hKv1.5 = hKv1.5 (Homo sapiens, UniProt P22460); experiment: hKv1.5 % inhibition; format: cell-based; conditions: for inhibition at 0.3 µM: read-out: hKv1.5 % inh. 300 nM
Chain of hKv1.5 (P22460 whole entry): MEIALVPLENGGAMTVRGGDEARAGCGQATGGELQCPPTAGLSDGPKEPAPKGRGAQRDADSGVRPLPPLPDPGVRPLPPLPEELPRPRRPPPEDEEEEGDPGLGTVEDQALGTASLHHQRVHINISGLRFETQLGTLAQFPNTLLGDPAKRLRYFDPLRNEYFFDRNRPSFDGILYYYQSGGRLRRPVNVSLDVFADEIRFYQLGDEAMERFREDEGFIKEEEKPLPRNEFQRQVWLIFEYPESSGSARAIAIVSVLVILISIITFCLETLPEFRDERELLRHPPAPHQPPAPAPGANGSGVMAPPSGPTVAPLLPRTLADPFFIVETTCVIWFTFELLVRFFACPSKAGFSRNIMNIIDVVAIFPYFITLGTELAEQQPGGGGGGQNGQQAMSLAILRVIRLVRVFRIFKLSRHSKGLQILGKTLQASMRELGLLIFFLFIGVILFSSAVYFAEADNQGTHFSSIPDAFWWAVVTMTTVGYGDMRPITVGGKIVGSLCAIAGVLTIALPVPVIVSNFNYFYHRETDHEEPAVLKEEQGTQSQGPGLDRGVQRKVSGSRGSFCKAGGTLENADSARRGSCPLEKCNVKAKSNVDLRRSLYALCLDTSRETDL

Chain of hKv1.3 (P22001 whole entry): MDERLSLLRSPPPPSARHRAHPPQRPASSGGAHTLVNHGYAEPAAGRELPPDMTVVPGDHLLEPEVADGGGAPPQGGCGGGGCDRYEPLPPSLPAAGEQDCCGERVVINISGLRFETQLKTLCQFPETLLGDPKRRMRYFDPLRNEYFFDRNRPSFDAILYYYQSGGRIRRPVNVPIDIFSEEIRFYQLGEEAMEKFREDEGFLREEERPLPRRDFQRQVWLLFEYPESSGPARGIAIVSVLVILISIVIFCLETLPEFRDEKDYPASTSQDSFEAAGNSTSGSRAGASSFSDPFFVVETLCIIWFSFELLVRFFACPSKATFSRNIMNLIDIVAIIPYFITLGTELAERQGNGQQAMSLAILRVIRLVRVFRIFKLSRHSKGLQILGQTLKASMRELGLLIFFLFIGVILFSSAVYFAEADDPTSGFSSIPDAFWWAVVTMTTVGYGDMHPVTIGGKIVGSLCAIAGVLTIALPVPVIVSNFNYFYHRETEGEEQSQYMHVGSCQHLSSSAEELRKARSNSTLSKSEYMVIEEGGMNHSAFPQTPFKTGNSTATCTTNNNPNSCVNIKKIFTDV

## Cn1cnc(S(=O)(=O)N(Cc2ccc(Cl)cc2)c2ccc3c(c2)CCN(C(=O)CC#N)C3)c1 [Example 20, 1-Methyl-1H-imidazole-4-sulfonic acid (4-chloro-benzyl)-[2-(2-cyano-acetyl)-1,2,3,4-tetrahydro-isoquinolin-6-yl]-amide]
hKv1.3
  inhibition at 1 µM: 48.5%
hKv1.5
  inhibition at 0.3 µM: 13.4%

## Cn1cnc(S(=O)(=O)N(Cc2ccc(Cl)cc2)c2ccc3c(c2)CCN3)c1 [Example 15, 1-Methyl-1H-imidazole-4-sulfonic acid (4-chloro-benzyl)-(2,3-dihydro-1H-indol-5-yl)-amide]
hKv1.3
  inhibition at 1 µM: 61.1%
hKv1.5
  inhibition at 0.3 µM: 20.5%

## COCC(=O)N1CCc2cc(N(Cc3ccc(Cl)cc3)S(=O)(=O)c3ccn(C)n3)ccc21 [Example 13, 1-Methyl-1H-pyrazole-3-sulfonic acid (4-chloro-benzyl)-[1-(2-methoxy-acetyl)-2,3-dihydro-1H-indol-5-yl]-amide]
hKv1.3
  inhibition at 1 µM: 64.2%
hKv1.5
  inhibition at 0.3 µM: 66.6%

## 1-Methyl-1H-pyrazole-3-sulfonic acid (4-chloro-benzyl)-[1-(3-methoxy-propionyl)-2,3-dihydro-1H-indol-6-yl]-amide [Example 2]
hKv1.3
  hKv1.3 % inh. 1 uM: 99.1%

## CC(=O)N1CCc2cc(N(Cc3ccc(Cl)cc3)S(=O)(=O)c3cn(C)cn3)ccc2C1 [Example 8, 1-Methyl-1H-imidazole-4-sulfonic acid(2-acetyl-1,2,3,4-tetrahydro-isoquinolin-6-yl)-(4-chlorobenzyl)-amide]
hKv1.3
  hKv1.3 % inh. 1 uM: 73.3%
hKv1.5
  hKv1.5 % inh. 300 nM: 25.2%

## Cn1ccc(S(=O)(=O)N(Cc2ccc(Cl)cc2)c2ccc3c(c2)CCN3C(=O)CC#N)n1 [Example 7, 1-Methyl-1H-pyrazole-3-sulfonic acid (4-chloro-benzyl)-[1-(2-cyano-acetyl)-2,3-dihydro-1H-indol-5-yl]-amide]
hKv1.3
  inhibition at 1 µM: 77.2%
hKv1.5
  inhibition at 0.3 µM: 48.3%

## 1-Methyl-1H-pyrazole-3-sulfonic acid benzyl-[2-(2-methoxy-acetyl)-1,2,3,4-tetrahydro-isoquinolin-6-yl]-amide [Example 18]
hKv1.3
  hKv1.3 % inh. 1 uM: 51.1%
hKv1.5
  hKv1.5 % inh. 300 nM: 34.6%

## COCC(=O)N1CCc2ccc(N(Cc3ccc(Cl)cc3)S(=O)(=O)c3ccn(C)n3)cc21 [Example 1, 1-Methyl-1H-pyrazole-3-sulfonic acid (4-chloro-benzyl)-[1-(2-methoxy-acetyl)-2,3-dihydro-1H-indol-6-yl]-amide]
hKv1.3
  inhibition at 1 µM: 100%
hKv1.5
  inhibition at 0.3 µM: 92.1%

## COCC(=O)N1CCc2cc(N(Cc3ccc(Cl)cc3)S(=O)(=O)c3cn(C)cn3)ccc2C1 [Example 14, 1-Methyl-1H-imidazole-4-sulfonic acid (4-chloro-benzyl)-[2-(2-methoxy-acetyl)-1,2,3,4-tetrahydro-isoquinolin-6-yl]-amide]
hKv1.3
  inhibition at 1 µM: 62.7%
hKv1.5
  inhibition at 0.3 µM: 32.1%

## CC(=O)N1CCc2ccc(N(Cc3ccc(Cl)cc3)S(=O)(=O)c3ccn(C)n3)cc21 [Example 3, 1-Methyl-1H-pyrazole-3-sulfonic acid (1-acetyl-2,3-dihydro-1H-indol-6-yl)-(4-chloro-benzyl)-amide]
hKv1.3
  inhibition at 1 µM: 98%
hKv1.5
  inhibition at 0.3 µM: 89.5%

## CC(=O)N1CCc2cc(N(Cc3ccccc3)S(=O)(=O)c3ccn(C)n3)ccc2C1 [Example 10, 1-Methyl-1H-pyrazole-3-sulfonic acid (2-acetyl-1,2,3,4-tetrahydro-isoquinolin-6-yl)-benzyl-amide]
hKv1.3
  inhibition at 1 µM: 67.2%
hKv1.5
  inhibition at 0.3 µM: 37.5%

## Cn1cnc(S(=O)(=O)N(Cc2ccc(Cl)cc2)c2ccc3c(c2)CCN(C(=O)CO)C3)c1 [Example 19, 1-Methyl-1H-imidazole-4-sulfonic acid (4-chloro-benzyl)-[2-(2-hydroxy-acetyl)-1,2,3,4-tetrahydro-isoquinolin-6-yl]-amide]
hKv1.3
  inhibition at 1 µM: 49.5%
hKv1.5
  inhibition at 0.3 µM: 16.2%

## 1-Methyl-1H-pyrazole-3-sulfonic acid benzyl-[2-(pyridine-2-carbonyl)-1,2,3,4-tetrahydro-isoquinolin-6-yl]-amide [Example 17]
hKv1.3
  hKv1.3 % inh. 1 uM: 54.8%
hKv1.5
  hKv1.5 % inh. 300 nM: 36.7%

## COCCC(=O)N1CCc2cc(N(Cc3ccc(Cl)cc3)S(=O)(=O)c3cn(C)cn3)ccc2C1 [Example 16, 1-Methyl-1H-imidazole-4-sulfonic acid (4-chloro-benzyl)-[2-(3-methoxy-propionyl)-1,2,3,4-tetrahydro-isoquinolin-6-yl]-amide]
hKv1.3
  inhibition at 1 µM: 57.5%
hKv1.5
  inhibition at 0.3 µM: 32.2%

## 1-Methyl-1H-pyrazole-3-sulfonic acid benzyl-[2-(3-methoxy-propionyl)-1,2,3,4-tetrahydro-isoquinolin-6-yl]-amide [Example 12]
hKv1.3
  hKv1.3 % inh. 1 uM: 64.3%
hKv1.5
  hKv1.5 % inh. 300 nM: 41.7%

## CC(=O)N1CCc2cc(N(Cc3ccc(Cl)cc3)S(=O)(=O)c3ccn(C)n3)ccc21 [Example 4, 1-Methyl-1H-pyrazole-3-sulfonic acid (1-acetyl-2,3-dihydro-1H-indol-5-yl)-(4-chloro-benzyl)-amide]
hKv1.3
  inhibition at 1 µM: 91.3%
hKv1.5
  inhibition at 0.3 µM: 86.1%

## Cn1cnc(S(=O)(=O)N(Cc2ccc(Cl)cc2)c2ccc3c(c2)NCC3)c1 [Example 6, 1-Methyl-1H-imidazole-4-sulfonic acid (4-chloro-benzyl)-(2,3-dihydro-1H-indol-6-yl)-amide]
hKv1.3
  inhibition at 1 µM: 85.4%
hKv1.5
  inhibition at 0.3 µM: 37.1%

## COCCC(=O)N1CCc2ccc(N(Cc3ccc(Cl)cc3)S(=O)(=O)c3cn(C)cn3)cc21 [Example 11, 1-Methyl-1H-imidazole-4-sulfonic acid (4-chloro-benzyl)-[1-(3-methoxy-propionyl)-2,3-dihydro-1H-indol-6-yl]-amide]
hKv1.3
  inhibition at 1 µM: 65.6%
hKv1.5
  inhibition at 0.3 µM: 20.9%

## 1-Methyl-1H-pyrazole-3-sulfonic acid benzyl-[2-(2-cyano-acetyl)-1,2,3,4-tetrahydro-isoquinolin-6-yl]-amide [Example 9]
hKv1.3
  hKv1.3 % inh. 1 uM: 71.6%
hKv1.5
  hKv1.5 % inh. 300 nM: 27.6%

## COCCC(=O)N1CCc2cc(N(Cc3ccc(Cl)cc3)S(=O)(=O)c3ccn(C)n3)ccc21 [Example 5, 1-Methyl-1H-pyrazole-3-sulfonic acid (4-chloro-benzyl)-[1-(3-methoxy-propionyl)-2,3-dihydro-1H-indol-5-yl]-amide]
hKv1.3
  inhibition at 1 µM: 90.7%
hKv1.5
  inhibition at 0.3 µM: 65.2%
